In the supplement of paper PMC10307832:

Assays:
Assay in all cases: relative viability (nuclei count vs DMSO), 5 days (fraction); higher = more cells survive
CUDC-101 + Lapatinib = compound: C#Cc1cccc(Nc2ncnc3cc(OC)c(OCCCCCCC(=O)NO)cc23)c1 [CUDC-101] + CS(=O)(=O)CCNCc1ccc(-c2ccc3ncnc(Nc4ccc(OCc5cccc(F)c5)c(Cl)c4)c3c2)o1 [Lapatinib] (partner 2 µM)
Method in brief: (§1)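 The day after seeding in 1536-well plates, lung cancer cell lines were treated by pin tool with a single drug, or with a fixed anchor-drug dose together with five library-drug doses (not always all listed) in √10 steps. After 5 days, a combined fix-and-stain solution (final 0.05% Triton X-100, 1% formaldehyde, 1 ug/ml Hoechst) was added. Nuclei counted on 4× images gave relative viability as treated counts over vehicle counts, reported as the median of duplicate plates.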

CUDC-101 + Linsitinib = compound: C#Cc1cccc(Nc2ncnc3cc(OC)c(OCCCCCCC(=O)NO)cc23)c1 [CUDC-101] + C[C@]1(O)C[C@@H](c2nc(-c3ccc4ccc(-c5ccccc5)nc4c3)c3c(N)nccn32)C1 [Linsitinib] (partner 1 µM)
Method in brief: as §1

CUDC-101 + Phenformin = compound: C#Cc1cccc(Nc2ncnc3cc(OC)c(OCCCCCCC(=O)NO)cc23)c1 [CUDC-101] + N=C(N)NC(=N)NCCc1ccccc1 [Phenformin] (partner 250 µM)
Method in brief: as §1

Vandetanib + Vorinostat = compound: COc1cc2/c(=N/c3ccc(Br)cc3F)nc[nH]c2cc1OCC1CCN(C)CC1 [Vandetanib] + O=C(CCCCCCC(=O)Nc1ccccc1)NO [Vorinostat] (partner 1 µM)
Method in brief: as §1

Row | Cell Line | relative viability (CUDC-101 + Lapatinib; first compound 0.01 µM) | relative viability (CUDC-101 + Lapatinib; first compound 0.03162 µM) | relative viability (CUDC-101 + Lapatinib; first compound 0.1 µM) | relative viability (CUDC-101 + Lapatinib; first compound 0.3162 µM) | relative viability (CUDC-101 + Lapatinib; first compound 1 µM) | relative viability (CUDC-101 + Linsitinib; first compound 0.01 µM) | relative viability (CUDC-101 + Linsitinib; first compound 0.03162 µM) | relative viability (CUDC-101 + Linsitinib; first compound 0.1 µM) | relative viability (CUDC-101 + Linsitinib; first compound 0.3162 µM) | relative viability (CUDC-101 + Linsitinib; first compound 1 µM) | relative viability (CUDC-101 + Phenformin; first compound 0.01 µM) | relative viability (CUDC-101 + Phenformin; first compound 0.03162 µM) | relative viability (CUDC-101 + Phenformin; first compound 0.1 µM) | relative viability (CUDC-101 + Phenformin; first compound 0.3162 µM) | relative viability (CUDC-101 + Phenformin; first compound 1 µM) | relative viability (Vandetanib + Vorinostat; first compound 0.02 µM) | relative viability (Vandetanib + Vorinostat; first compound 0.06325 µM) | relative viability (Vandetanib + Vorinostat; first compound 0.2 µM) | relative viability (Vandetanib + Vorinostat; first compound 0.6325 µM) | relative viability (Vandetanib + Vorinostat; first compound 2 µM)
1 | SK-MES-1 | 0.466 | 0.462 | 0.451 | 0.461 | 0.388 | 1.17 | 1.13 | 1.05 | 1.1 | 0.742 | 0.705 | 0.679 | 0.705 | 0.606 | 0.57 | 1.05 | 0.916 | 1.1 | 0.949 | 0.795
2 | H3255 | 0.244 | 0.248 | 0.24 | 0.248 | 0.174 | 1.02 | 0.751 | 0.38 | 0.5 | 0.203 | 0.367 | 0.322 |  | 0.31 | 0.166 | 0.763 | 0.704 | 0.808 | 0.507 | 0.644
3 | HCC-78 | 0.882 | 0.92 | 0.808 | 0.701 | 0.631 | 0.438 | 0.387 | 0.707 | 0.42 | 0.27 | 0.709 | 0.705 | 0.675 | 0.602 | 0.246 | 0.5 | 0.481 | 0.418 | 0.505 | 0.346
4 | EMC-BAC-2 | 0.836 | 0.88 | 0.909 | 0.974 | 0.485 | 0.845 | 0.867 | 0.852 | 0.765 | 0.634 | 0.616 | 0.472 | 0.549 | 0.487 | 0.365 | 0.506 | 0.469 | 0.431 | 0.5 | 0.369
5 | NCI-H2228 | 1.06 | 1.49 | 1.12 | 0.977 | 0.412 | 0.894 | 0.652 | 0.625 | 0.722 | 0.949 | 0.27 | 0.272 | 0.29 | 0.403 | 0.254 | 0.592 | 0.474 | 0.747 | 1.04 | 0.679
6 | HCC-827 | 0.206 | 0.181 | 0.178 | 0.174 | 0.218 | 0.965 | 0.537 | 0.257 | 0.203 | 0.205 | 0.376 | 0.18 | 0.161 | 0.143 | 0.14 | 0.788 | 0.82 | 0.815 | 0.369 | 0.327
7 | LXF-289 | 0.895 | 0.915 | 0.97 | 0.915 | 0.694 | 0.989 | 1.04 | 0.979 | 0.992 | 0.781 | 0.536 | 0.523 | 0.55 | 0.493 | 0.408 | 0.806 | 0.766 | 0.768 | 0.848 | 0.708
8 | HOP-62 | 1.03 | 0.909 | 1.05 | 0.768 | 0.821 | 1.06 | 0.992 | 0.842 | 0.853 | 0.596 | 0.628 | 0.656 | 0.758 | 0.683 | 0.545 | 0.553 | 0.574 | 0.651 | 0.686 | 0.811
9 | LOU-NH91 | 0.843 | 0.772 | 0.764 | 0.825 | 0.641 | 0.978 | 0.634 | 0.564 | 0.599 | 0.453 | 0.736 | 0.56 | 0.534 | 0.587 | 0.393 | 0.942 | 0.806 | 0.559 | 0.883 | 0.886
10 | NCI-H1915 | 1.02 | 1.04 | 0.977 | 0.911 | 0.837 | 1.1 | 1.16 | 1.07 | 1.11 | 1 | 0.395 | 0.361 | 0.364 | 0.349 | 0.269 | 0.497 | 0.512 | 0.535 | 0.532 | 0.505
11 | NCI-H1395 | 1.04 | 1.13 | 1.05 | 0.862 | 0.661 | 1.13 | 1.05 | 0.963 | 1.07 | 0.888 | 0.495 | 0.435 | 0.462 | 0.466 | 0.456 | 0.622 | 0.881 | 0.495 | 0.63 | 0.596
12 | COR-L23 | 1.02 | 1.02 | 0.889 | 1.1 | 0.449 | 1.25 | 0.898 | 0.956 | 0.736 | 0.252 | 0.479 | 0.456 | 0.419 | 0.365 | 0.25 | 0.427 | 0.406 | 0.463 | 0.451 | 0.516
13 | NCI-H1734 | 1.1 | 0.988 | 1.07 | 1.09 | 0.841 | 0.948 | 0.796 | 0.858 | 0.961 | 0.704 | 0.362 | 0.419 | 0.425 | 0.448 | 0.29 | 0.87 | 0.71 | 0.755 | 0.852 | 0.815
14 | NCI-H2405 | 1.25 | 1.05 | 1.19 | 1.27 | 0.917 | 1.03 | 0.702 | 0.981 | 1.14 | 0.851 | 0.392 | 0.37 | 0.442 | 0.397 | 0.352 | 1.02 | 0.885 | 0.97 | 1.14 | 0.898
15 | NCI-H2087 | 0.986 | 1.37 | 1.04 | 1.04 | 0.761 | 0.916 | 0.87 | 1.01 | 0.882 | 0.812 | 0.403 | 0.465 | 0.439 | 0.413 | 0.316 | 0.755 | 0.604 | 0.657 | 0.614 | 0.922
16 | NCI-H1793 | 0.813 | 0.63 | 0.731 | 0.718 | 0.485 | 0.898 | 0.73 | 0.803 | 0.779 | 0.633 | 0.372 | 0.239 | 0.34 | 0.442 | 0.291 | 0.716 | 0.618 | 0.651 | 0.648 | 0.624
